Test results taken from patent publication US11992498B2, “Substituted N9-adenine derivatives, pharmaceutical compositions containing same and use thereof” (priority 2018, dated 2024).

Assays:
Format in all cases: cell-based, mouse
[1] = tested on: AMPK; assay: AMPK activation assay (ELISA ratio phosphorylated α-AMPK:total α-AMPK in C2C12 cells); conditions: concentrations as low as 30 nanomolar, 4 hours of incubation
Procedure: C2C12 cells from the mouse muscle myoblastoma cell line (from Sigma-Aldrich) were seeded at a cell density of 10,000 cells per well in a 96-well plate in 200 μl of growth medium (high glucose DMEM, 10% foetal bovine serum […], penicillin and […]). The cells were allowed to grow until confluence and on the day of the assay they were incubated with the compound of interest in 100 μl of growth medium at 37° C. and 5% CO2 in an incubator for between 1 and 24 hours. All conditions were tested in quadruplicate. The compounds were administered dissolved in sterile anhydrous dimethyl sulphoxide at different concentrations. As a positive control for AMPK activation, an adenosine monophosphate (AMP) solution with a final concentration of […] was used. After the corresponding times, the medium was removed and the cells were carefully washed three times with PBS at room temperature and the Abcam Elisa kit was used to quantify the ratio of phosphorylated α-AMPK:total α-AMPK. The manufacturer's instructions were followed and the signal was quantified using a Licor Odissey® scanner.
The compounds selected as AMPK activators according to the criteria described above are used in glucose consumption tests and MTT cell viability tests.

[2] = tested on: C2C12 cells; assay: Glucose consumption test (2-deoxyglucose uptake, luminometric) in C2C12 myotubes; conditions: one hour incubation
Procedure: C2C12 cells of the mouse muscle myoblastoma cell line (from Sigma-Aldrich) were seeded at a cell density of 10,000 cells per well in a white 96-well plate compatible with the use of a luminometer. Cells were grown for 5 days in 200 μl/well of growth medium (high glucose DMEM, 10% foetal bovine serum […], penicillin and […]) in an incubator at 37° C. and 5% CO2. The medium was changed every two days. The medium was then replaced with a differentiation medium (low glucose DMEM, 2% […], penicillin and […]), allowing the cells to differentiate into myotubes for three days. The medium was changed every day. One day prior to testing, cells were serum starved (low glucose DMEM, penicillin and […]). The medium was then replaced by a DMEM medium without glucose and the compound N9-(3-diethylphosphonyl)phenyl-adenine was incubated for one hour at different concentrations, replicating the conditions in quadruplicate. The positive control consisted of 100 nanomolar human insulin solution (from Sigma). A Promega glucose consumption kit was used following the manufacturer's instructions. […]
Total luminescence was measured on a Biotek MX luminometric plate reader. […]

[3] = tested on: C2C12 cells; assay: MTT cell viability/proliferation assay in C2C12 myotubes
Procedure: MTT Cell Viability/Proliferation Assay
The MTT redox assay is based on the metabolic reduction of bromide from 3-(4,5-dimethylthiazol-2-yl)-2,5-diphenyltetrazole (MTT) that is produced by the mitochondrial enzyme succinate-dehydrogenase, which colours the formazan dye blue, allowing to determine the mitochondrial functionality of the treated cells.
C2C12 cells were seeded at a density of 10,000 cells per well in a white 96-well plate compatible with the use of a luminometer. Cells were grown for 5 days in 200 μl/well of growth medium (high glucose DMEM, 10% FBS, penicillin and […]), with the medium being replaced every two days. Subsequently, the medium was replaced by a differentiation medium (low glucose DMEM, 2% NHS, penicillin and […]) and the cells were allowed to differentiate in myotubes for three days, the medium being changed every day. In all processes, cells were incubated at 37° C. and 5% CO2 in a cell incubator. The compound N9-(3-diethylphosphonyl)phenyl-adenine was incubated for 24 and 48 hours in low glucose DMEM without serum. […] After incubation, 10 μl of the MTT reagent (Abcam) was added to each well and, after 30 min, 45 min and 60 min of incubation, the absorbance at 490 nm was measured in a photometer with a Biotek TX plate reader. The reading is an indirect measure of the NAD(P)H enzyme dependent on cellular oxidase reductases. […]

Substance: N9-(3-diethylphosphonyl)phenyl-adenine
- AMPK activity as % of that obtained with the AMP positive control [1]: greater than 500%
- AMPK activity compared with the AMP positive control [1]: higher AMPK activity than the AMP positive control
- Luminosity as % of the control (glucose consumption) ([2]; 30 nanomolar, C2C12 myotubes): 125±9%
- glucose consumption activity compared with insulin controls ([2]; concentrations as low as 30 nanomolar, control 100 nanomolar human insulin): analogous to or greater than that of insulin controls
- Luminosity as % of the control (MTT) ([3]; 30 nanomolar, 48 hours incubation): 157±5%
- MTT signal compared to controls ([3]; nanomolar concentrations): significantly higher signal compared to controls
